Measured values from patent US11033473B2, “Hair restoration/growth stimulating agent” (Kinjirushi Co., Ltd., priority 2015, dated 2021).
Like-named read-outs stand apart in the source and are kept apart here.

Legend:
[1] = system: human hair follicle dermal papilla cells; assay: Evaluation of human hair follicle dermal papilla cell-activating action (Living Cell Count Reagent SF, ABS/hr); format: cell-based; details: for cell-activating action vs 0.1% DMSO experimental section: 100 μmol/L
Experimental: After one-day culturing in the carbon dioxide incubator, the cells were transferred to a follicle dermal papilla cell proliferation medium in which isosaponarin was dissolved at final concentrations of 0.1 μmol/L, 10 μmol/L, and 1000 μmol/L. Then, the cells were cultured for one day and three days, and proliferation of each cell was compared using Living Cell Count Reagent SF. After the one-day and three-day culturing were completed, the supernatant culture was removed, and the cells were washed with PBS. After washing with PBS, a medium containing 10% Living Cell Count Reagent SF at 300 μL/well was added. The culture supernatant at 100 μL/well was transferred to another 96-well plate 30 and 90 minutes after the addition. Absorbance was measured at a microplate reader (measuring wavelength 450 nm, reference wavelength 595 nm). […] The experiment was carried out five times. A non-addition control section was used as a comparison control section of isosaponarin.
As a positive control, the same test was carried out also for the case of adding adenosine (Cat. No. 016-10493, distributed by Wako Pure Chemical Industries, Ltd.) at final concentration of 100 μmol/L and minoxidil (Cat. No. M4145-25MG, distributed by Sigma-Aldrich Japan Co., Ltd.) at final concentration of 30 μmol/L. Adenosine was dissolved in dimethyl sulfoxide (DMSO) and added to a test medium at final concentration of 0.1% DMSO. As a solvent control, 0.1% DMSO experimental section was provided. Minoxidil was dissolved in ethanol and added to a test medium at final concentration of 0.1% ethanol. […] Thus, a non-addition control section was used for a comparison control section of minoxidil.
Significance test was performed in the comparison experimental section. The test was carried out as Student T-test. It is determined that there is significance when P<0.05 (less than 5% if null hypothesis is true), as described in the figures.
A 100 mmol/L stock solution of adenosine (positive control substance) was prepared using DMSO as a solvent, and added to a test medium at final concentration of 100 μmol/L (0.1% DMSO experimental section was used as a solvent control). A 15 mmol/L stock solution of minoxidil was prepared with 50% ethanol, and added to a test medium at final concentration of 30 μmol/L. Since solvent (ethanol) concentration in this case is 0.2%, 0.2% ethanol experimental section was used as the control section.
Since the concentration of the solvent in the highest concentration of each test substance is 0.1% or less, it is determined that there is no influence of the solvent in the present test, and a non-addition control section was used as a reference in comparison of significant difference. The test was conducted as a Student T-test.
(§1) Thereafter, the cells were cultured for three days, and proliferation of each cell is compared using Living Cell Count Reagent SF. The experiment was carried out five times. After three-days culturing was completed, supernatant liquid of the culture was collected and a VEGF production amount of the supernatant was measured by ELISA kit as in Example 2.
Further, the supernatant was removed. The cells were washed with PBS, and a medium containing 10% Living Cell Count Reagent SF (300 μL/well) was then added. 100 μL per well of the culture supernatant 30 and 90 minutes after the addition was transferred to another 96-well plate and absorbance was measured with a microplate reader (measuring wavelength 450 nm, reference wavelength 595 nm).

[2] = system: FGF-7 gene; assay: FGF-7 gene expression in human hair follicle dermal papilla cells (real-time PCR); format: cell-based; details: cultured for two hours
Experimental: Then, the cells are cultured for two hours, and total RNA was recovered and reverse transcribed into cDNA. Thereafter, FGF-7 gene expression was measured by real-time PCR. Using GAPDH gene as an internal reference, FGF-7 gene expression was calculated as a relative value of the negative control section. The experiment was carried out three times. Details of each procedure are shown below.
First, collection of total RNA from the cells and cDNA synthesis were carried out according to the steps of FastLane Cell RT-PCR kit.
Step 7-1. 500 μL per well of buffer FCW was added to the cells washed with PBS, and the buffer FCW was immediately removed and aspirated.
Step 7-2. 200 μL per well of the buffer FCP was added. After incubation for 5 minutes at room temperature (25° C.), FastLane lysate was transferred to a 96-well PCR tube. The tube was stored at −80° C. until the next cDNA synthesis.
Step 7-3. Lysate in Step 7-2 was dissolved at room temperature. 2 μL of gDNA Wipeout Buffer, 1μL of FastLane lysate and 11 μL of RNase-free water were added to a new PCR tube, caused to react for 5 minutes at 42° C., and then transferred immediately to ice. (In fact, an appropriate amount of master mix of gDNA Wipeout Buffer and RNase-free water was added to the tube containing lysate.)
Step 7-4. 6 μL of the reverse transcription reaction master mix was added to 14 μL of reaction solution obtained in Step 7-3 and incubated for 30 minutes at 42° C. (1 μL of Quantiscript Reverse Transcriptase, 4 μL of Quantiscript RT Buffer, 1 μL of RT Primer Mix/tube).
Step 7-5. The reaction solution was treated for 3 minutes at 95° C., to inactivate the reverse transcriptase. […]
The relative expression level of each gene was calculated as follows. From an intersection of an amplification curve of each gene and a threshold line of each gene, a Ct value (the number of PCR cycles) was calculated. ΔCt value is obtained by subtracting a Ct value of the internal reference GAPDH gene from a Ct value of the target gene (Ct values (target gene)−Ct (GAPDH2)=ΔCt value). […]

[3] = system: VEGF; assay: VEGF production promoting action in human hair follicle dermal papilla cells (ELISA of culture supernatant); format: cell-based
Experimental: An amount of VEGF in a culture supernatant treated with isosaponarin for three days on human hair follicle dermal papilla cells was measured using ELISA kit for (product name: Human VEGF Quantikine ELISA, Cat. No. DVE00, distributed by R&D Systems, Inc.) The supernatant at the time of three-day culturing in the above section (1-3) was used as the culture supernatant treated with isosaponarin for three days. Specifically, in the above section (1-3), in order to measure absorbance, the culture supernatant was removed three days after addition of isosaponarin. In an evaluation test of VEGF production promoting action, the culture supernatant was collected three days after the addition of isosaponarin, and the supernatant was used as a sample. The experiment was carried out five times.
Hereinafter, a method of measuring VEGF will be described in detail. For the measurement of VEGF, the stock solution was used without diluting the supernatant.
Procedure 1-1. On the basis of a VEGF standard stock solution (2000 pg/mL), VEGF standard solutions of 1000, 500, 250, 125, 62.5, 31.2, and 15.6 pg/mL were prepared using a reaction buffer.
Procedure 1-2. Each of the VEGF standard solutions and 200 μL of sample (culture supernatant) were added to a VEGF immobilized microplate in which 50 μL of dilution was added to each well, and allowed to react at room temperature for 2 hours (primary reaction).
Procedure 1-3. The solutions in the wells were removed and the wells were washed 3 times with washing solution.
Procedure 1-4. 200 μL of horseradish peroxidase-conjugated VEGF antibody solution was added to each well and allowed to react for 2 hours at room temperature (secondary reaction).
Procedure 1-5. The solutions in the wells were removed and the wells were washed 3 times with the washing solution.
Procedure 1-6. 200 μL of substrate solution was added to each well and allowed to react for 20 minutes at room temperature.
Procedure 1-7. 50 μL of reaction stop solution was added to each well. After one minute mixing in a plate mixer, absorbance of each well was measured with a plate reader (measuring wavelength 450 nm).
Procedure 1-8. From a standard curve, VEGF concentration in the sample was calculated.
A non-addition control section was used as a comparison control section of isosaponarin.
As a positive control, the same experiment was performed to the case of adding minoxidil having final concentration of 30 μmol/L as well. A non-addition control section was used as a comparison control section of minoxidil.
as §1

[4] = system: human hair follicle dermal papilla cells; assay: Evaluation of human hair follicle dermal papilla cell-activating action (Living Cell Count Reagent SF, ABS/hr); format: cell-based; details: Example 7, three days
[5] = system: human hair follicle dermal papilla cells; assay: Cytotoxicity test using human hair follicle dermal papilla cells; details: three-day culture; for concentration showing toxicity to human hair follicle dermal papilla cells: FIGS. 5-7
Experimental: (§2) Human hair follicle dermal papilla cells (Cat. No. CA60205a, Lot No. 2548, derived from person, distributed by Toyobo Co., Ltd.), which are widely used in efficacy evaluation of a hair restoration agent, were used as test cells. The human hair follicle dermal papilla cells were cultured in a carbon dioxide incubator (5% CO2, 37° C.) using a follicle dermal papilla cell proliferation medium (Cat. No. TMTPGM-250, distributed by Toyobo Co., Ltd.) A flask used for the culture was coated with collagen I before use. For cell passage, cells were separated from the flask using a follicle dermal papilla cell dedicated subculture set (Cat. No. CA090K, distributed by Toyobo Co., Ltd.)
(§3) The human hair follicle dermal papilla cells were seeded in a collagen I-coated 96-well plate at 5×10^3 cells/well (0.1 mL/well in this test). After one-day culturing (50% confluent) in the carbon dioxide incubator (5% CO2, 37° C.), the cells were transferred to a test medium containing isosaponarin, and then cultured for three days. Cell proliferation was compared using Living Cell Count Reagent SF (Cat. No. 07553, distributed by Nacalai Tesque, Inc.) In consideration of possible influence on absorbance by precipitates adhering to the cells in absorbance measurement in living cell count, the culture supernatant was removed after the end of the three-day culturing, and the cells were washed with a phosphate-buffered saline (PBS). After washing with PBS, 100pL per well of a medium containing 10% of Living Cell Count Reagent SF was added. Absorbance (measurement wavelength 450 nm, reference wavelength 595 nm) of the culture supernatant was measured 30 minutes and 90 minutes after the addition. An amount of change (ABS/hr) in absorbance ABS per hour was calculated from values at 90 minutes and 30 minutes. The experiment was carried out three times.

[6] = system: human hair follicle dermal papilla cells
Experimental: as §2, §3

[7] = Example 7, 0.1 μmol/L, three days

## Nc1ncnc2c1ncn2[C@@H]1O[C@H](CO)[C@@H](O)[C@H]1O [adenosine, reference compound]
[1]; Example 1, three-day processing period
  cell-activating action vs 0.1% DMSO experimental section: more significant cell-activating action
[1]; Example 7, three days, FIG. 8
  cell-activating action vs 0.1% DMSO experimental section: more significant cell-activating action
[2]; 100 μmol/L, FIG. 10
  FGF-7 gene expression vs 0.1% DMSO experimental section: more significantly elevated FGF-7 gene expression
[3]; Example 7, 100 μmol/L, three days, FIG. 9
  amount of VEGF vs 0.1% DMSO experimental section: significantly increased the amount of VEGF on human hair follicle dermal papilla cell slightly more

## O=c1cc(-c2ccc(O)cc2)oc2cc(O)cc(O)c12 [apigenin, 2-(4-hydroxyphenyl)-5-hydroxy-7-hydroxy-4H-1-benzopyran-4-one]
[4]; 0.001 μmol/L to 1 μmol/L, FIG. 8
  cell-activating action vs non-addition control section: more significant cell-activating action
[4]; 10 μmol/L
  cell-activating action vs non-addition control section: no significance
[5]
  concentration showing toxicity to human hair follicle dermal papilla cells: ≥ 80 µM
[3]; Example 7, 0.001 μmol/L to 0.01 μmol/L, three days, FIG. 9
  amount of VEGF vs non-addition control section: increased more significantly
[3]; [7]
  amount of VEGF vs non-addition control section: no significance

## COC(=O)/C=C/c1ccc(O)c(O)c1 [caffeic acid methyl ester]
[5]
  concentration showing toxicity to human hair follicle dermal papilla cells: ≥ 16 µM
[3]; [7]
  amount of VEGF vs non-addition control section: did not show any significance
[3]; Example 7, 1 μmol/L, three days, FIG. 9
  amount of VEGF vs non-addition control section: increased more significantly
[3]; Example 7, 10 μmol/L, three days
  amount of VEGF vs non-addition control section: did not show any significance

## O=c1cc(-c2ccc(O[C@@H]3O[C@H](CO)[C@@H](O)[C@H](O)[C@H]3O)cc2)oc2cc(O)c([C@@H]3O[C@H](CO)[C@@H](O)[C@H](O)[C@H]3O)c(O)c12 [isosaponarin, 4′-(β-D-glucopyranosyloxy)-5,7-dihydroxy-6-β-D-glucopyranosylflavone]
[1]; Example 1, 0.1 μmol/L to 1000 μmol/L, one-day processing period, FIG. 2
  cell-activating action vs non-addition control section: slightly more significant cell-activating action
[1]; Example 1, 0.1 μmol/L to 1000 μmol/L, three-day processing period, FIG. 3
  cell-activating action vs non-addition control section: more significant cell-activating action
[1]; Example 1, three-day processing period, minoxidil 30 μmol/L
  cell-activating action relative to the action in the case of treating with minoxidil: about three times
[5]; FIG. 1
  concentration showing no toxicity to human hair follicle dermal papilla cells: ≤ 1000 µM
[3]; Example 2, 1000 μmol/L, treated for three days, FIG. 4
  amount of VEGF vs non-addition control section: significantly increased

## Nc1cc(N2CCCCC2)nc(N)[n+]1[O-] [minoxidil, 6-(1-piperidinyl)-2,4-pyrimidinediamine-3-oxide, reference compound]
[1]; Example 1, 30 μmol/L, one-day processing period
  cell-activating action vs non-addition control section: slightly more significant cell-activating action
[1]; Example 1, 30 μmol/L, three-day processing period
  cell-activating action vs non-addition control section: more significant cell-activating action
[4]; 30 μmol/L, FIG. 8
  cell-activating action vs 0.2% ethanol experimental section: more significant cell-activating action
[3]; Example 2, 30 μmol/L, treated for three days, FIG. 4
  amount of VEGF vs non-addition control section: significantly increased
[3]; Example 7, 30 μmol/L, three days, FIG. 9
  amount of VEGF vs 0.2% ethanol experimental section: more significantly increased

## coumaric acid
[2]; 0.001 μmol/L, FIG. 10
  FGF-7 gene expression vs non-addition control section: more significantly elevated
[2]; 0.01 μmol/L
  FGF-7 gene expression vs non-addition control section: did not show any significance
[4]; 0.01 μmol/L
  cell-activating action vs non-addition control section: did not show significance
[4]; 0.1 μmol/L, FIG. 8
  cell-activating action vs non-addition control section: more significant cell-activating action
[4]; 10 μmol/L
  cell-activating action vs non-addition control section: did not show significance
[6]
  concentration showing toxicity to human hair follicle dermal papilla cells: ≥ 2000 µM
